Results as given in patent publication US10039729B2, “Use of kukoamine A and kukoamine B” (Tianjin Chase Sun Pharmaceutical Co., Ltd., priority 2010, dated 2018).

What was measured:
NF-κB = NF-κB activation in RAW264.7 cells (ELISA of nuclear p50/p65, luciferase reporter gene assay); format: cell-based, murine; conditions: KB 200 μM
Description: […]
Detection of NF-κB activation using ELISA: Each well was added with 30 μl binding solution (3.2 μl DTT and 16.2 μl Herring sperm DNA were diluted in 1.6 ml binding solutions); each sample well was added with 20 μl sample ([…]); positive control wells was added with 20 μl p50; blank control wells were added with 20 μl dissolution buffer (0.9 μl 1M DTT and 1.8 μl protease inhibitors was diluted in 177.3 μl dissolution buffer AM2); the microtiter plate was shaken for 30 seconds for completely mixing, incubated at room temperature for 1 h, and then washed thrice with 200 μl 1×wash solution (450 μl 10×wash solution were diluted in 4.05 ml ddH2O) and gentle shaking for 5 min each time; each well was added with 100 μl NF-κB antibody (1:1000), incubated for 1 h, then washed thrice with 200 μl 1×wash solution and gentle shaking for 5 min each time; each well was added with 100 μl HRP antibody (1:1000), incubated for 1 h, then washed four times with 200 μl 1×wash solution and gentle shaken for 5 min each time; each well was added with 100 μl detection reagent, incubated for 5 min away from light, and then added with 100 μl stop solution; the absorbance value at 450 nm of each well was detected. […]

[1] = Major organ pathological morphous of mice after KB injection; format: in vivo, Kunming mice; conditions: KB 60 mg/kg single dose; 24, 48 and 72 h
Description: 30.1 Methods: A total of 16 Kunming mice were randomly divided into four groups; each group has 4 mice, half male and half female; for the purpose of experiment a medium group and a KB (60 mg/kg) treatment group were established; mice in medium group were immediately killed by cervical dislocation, and KB treatment group were killed separately killed at 24, 48 and 72 h after injection; the cavitas thoracis and abdominal cavity of mice were cut open; organs such as heart, liver, lung, kidney and intestine were moved out, rinsed with sterile saline, plunged into 10% formaldehyde solution for fixing, dehydrated, embedded in paraffin, HE dyed and mounted; organ histopathological changes were observed under a light microscope.

RAW264.7 cells = assay: Binding and cellular internalization of LPS and CpG DNA to RAW264.7 cells (confocal microscopy); format: cell-based, murine; conditions: KB 50, 100 and 200 μM, dose-dependent
Description: 21.1 Methods: RAW264.7 cells were cultured in 20 mm cell culture dishes for confocal microscopy applications, and diluted to 5×10^5/ml in DMEM supplemented with 10% (v/v) NCS; 1 ml of the above suspension was transferred into each cell culture dishes and cultured at 37° C. in a 5% CO2 humidified incubator for 4 h; for the purpose of experiment three groups were established, medium group, stimulation group and KB treatment group; the concentration and loading patterns of each group were consistent with Embodiment 12; the cells were then fixed with 4% paraform for 10 min after 30 min of culture, and washed thrice with PBS; nucleus were stained with DAPI (100 ng·mL^−1) for 2 min, washed with PBS thrice, mounted with a solution of 50% glycerol and 50% PBS, and stored in dark place until intensity and distribution of fluorescence of LPS and CpG DNA on RAW264.7 cells surface were observed under a confocal microscopy.

## NCCCN(CCCCNCCCNC(=O)CCc1ccc(O)c(O)c1)C(=O)CCc1ccc(O)c(O)c1 [KB, Kukoamine B]
NF-κB; 2 h, ELISA
  increase of p50 and p65 levels in nuclear proteins induced by LPS and CpG DNA: significantly inhibited
NF-κB; 6 h
  NF-κB activation induced by LPS and CpG DNA (luciferase reporter gene assay): inhibit NF-κB activation
[1]
  cardiac muscle histopathology: no cell necrosis and inflammatory cell infiltration
  changes in major organs of mice: no significant changes in major organs
  kidney histopathology: normal morphology and no obvious changes
  liver histopathology: no pathological changes such as cellular swelling and necrosis
  lung histopathology: no congestion and inflammatory cell infiltration
RAW264.7 cells; 5-FAM-CpG DNA 10 μg/ml
  green fluorescence intensity of 5-FAM (CpG DNA) on the surface of and inside RAW264.7 cells: significantly weakened
RAW264.7 cells; FITC-LPS 200 ng/ml
  green fluorescence intensity of FITC (LPS) on the surface of and inside RAW264.7 cells: significantly weakened
